Test results taken from patent US20260242416A1, “ANTIMICROBIAL PEPTIDES” (priority 2023, published 2026).
Where two headings read alike, the source gives them in different places. Where a SMILES comes first, the peptide text is derived from it.

How the values were obtained:
E. coli ATCC 25922 = type: cell-based, Escherichia coli
Protocol: (§1) Bacteria were grown overnight at 37° C. in Mueller-Hinton Broth (MHB; Sigma-Aldrich, St. Louis. MO, USA) in a shaking incubator and aliquoted into cryovials with a 50% glycerol solution in a 1:1 ratio. No additives were added to the MHB during the growth of bacterial isolates. Glycerol stocks were stored at −80° C.
(§2) The antimicrobial activity of the putative AMPs was determined by a broth microdilution assay as described by the Clinical and Laboratory Standards Institute, with the published adaptations for testing of cationic peptides. Escherichia coli 25922 and Staphylococcus aureus 29213 isolates were purchased from the American Type Culture Collection (ATCC; Manassas, VA, USA). A human clinical isolate of Salmonella enterica serovar Enteritidis was provided by the BC Centre for Disease Control. Bacteria from stocks stored at −80° C. were streaked onto nonselective Columbia blood agar with 5% sheep blood (Oxoid) and incubated overnight at 37° C. Next, 2-4 colonies were streaked onto a new agar plate to ensure uniform health of colonies used in the broth microdilution assay. Isolated colonies were suspended in MHB and the optical density was measured with a spectrophotometer to create an initial inoculum concentration of approximately 1×10^8 cfu/mL. The inoculum was diluted 1:250 to a final concentration of 2-8×10^5 cfu/mL, which was confirmed by performing a Total Viability Count (TVC). The TVC consisted of plating a 1:1000 dilution of the final inoculum on nonselective media and was also used to confirm the health and purity of the inoculum in each trial.
(§3) Lyophilized 80 μg peptide aliquots synthesized by GenScript (Piscataway, NJ, USA) were resuspended to 1.28 mg/mL with UltraPure water (Thermo Fisher Scientific, Waltham, MA, USA) and serially diluted in polypropylene 96-well microtiter plates (Greiner Bio-One #650261, Kremsmunster, Austria) from 128 down to 0.5 μg/mL. Two columns per plate were reserved for growth and sterility controls. Inoculum was added to the wells containing the peptide and the growth control. Plates were incubated for 20-24 h at 37° C. The minimum inhibitory concentration (MIC) was determined as the lowest peptide concentration where there was no visible bacterial growth.

[1] = system: Salmonella enterica serovar Enteritidis (human clinical isolate); type: cell-based
Protocol: as §1, §2, §3

S. aureus ATCC 29213 = type: cell-based, Staphylococcus aureus
Protocol: as §1, §2, §3

[2] = serovar Enteritidis (human clinical isolate)
[3] = Table 14, first value of the cell, three independent experiments, highest concentration tested 128
[4] = Table 14, second value of the cell, three independent experiments, highest concentration tested 128
[5] = Table 14, third value of the cell, three independent experiments, highest concentration tested 128

Compound	MIC (ug/mL) E. coli (E. coli ATCC 25922; ATCC 25922)	MIC (ug/mL) S. Enteritidis [1, 2]	MIC (ug/mL) S. aureus (S. aureus ATCC 29213; ATCC 29213)	MIC (ug/mL) E. coli (E. coli ATCC 25922; [3])	MIC (ug/mL) S. Enteritidis [1, 4]	MIC (ug/mL) S. aureus (S. aureus ATCC 29213; [5])
CC[C@H](C)[C@H](NC(=O)[C@H](Cc1ccccc1)NC(=O)[C@H](CCCCN)NC(=O)[C@@H](NC(=O)[C@H](CCCCN)NC(=O)[C@@H](N)CC(N)=O)[C@@H](C)CC)C(=O)N[C@@H](CC(N)=O)C(=O)N[C@@H](CCCCN)C(=O)N[C@@H](Cc1ccc(O)cc1)C(=O)N[C@H](C(=O)N[C@@H](CCCCN)C(=O)N[C@@H](CCCCN)C(=O)N[C@H](C(=O)N[C@@H](CCC(N)=O)C(=O)N[C@@H](CC(C)C)C(=O)N[C@@H](CCCCN)C(=O)N[C@@H](CCCCN)C(=O)N[C@H](C(=O)N[C@@H](CC(C)C)C(=O)N[C@H](C(=O)N[C@@H](CCCCN)C(=O)N[C@@H](CO)C(=O)O)C(C)C)[C@@H](C)CC)C(C)C)C(C)C [BoCo1] (H-NKIKFINKYVKKVQLKKILVKS-OH; N-terminus and C-terminus assumed)	>128/>128/>128 ug/mL	>128/>128/>128 ug/mL	>128/>128/>128 ug/mL	–	–	–
CC[C@H](C)[C@H](NC(=O)[C@H](Cc1c[nH]cn1)NC(=O)[C@H](Cc1c[nH]cn1)NC(=O)[C@H](Cc1c[nH]cn1)NC(=O)[C@@H](N)CCCCN)C(=O)N[C@@H](CCCCN)C(=O)N[C@@H](CC(C)C)C(=O)N[C@@H](CCCNC(=N)N)C(=O)N[C@@H](Cc1c[nH]cn1)C(=O)NCC(=O)N[C@@H](CCCNC(=N)N)C(=O)N[C@@H](Cc1c[nH]cn1)C(=O)N[C@@H](CCCNC(=N)N)C(=O)N[C@@H](CCCNC(=N)N)C(=O)N[C@@H](CO)C(=O)N[C@H](C(=O)N[C@@H](CC(C)C)C(=O)N[C@@H](CCCNC(=N)N)C(=O)N[C@H](C(=O)N[C@@H](CC(C)C)C(=O)N[C@H](C(=O)O)C(C)C)[C@@H](C)O)C(C)C [CaCa3] (H-KHHHIKLRHGRHRRSVLRTLV-OH; N-terminus and C-terminus assumed)	>128/>128/>128 ug/mL	>128/>128/>128 ug/mL	>128/>128/>128 ug/mL	–	–	–
CC[C@H](C)[C@H](NC(=O)CN)C(=O)N[C@@H](Cc1ccccc1)C(=O)N[C@@H](CO)C(=O)N[C@@H](CC(C)C)C(=O)N[C@H](C(=O)N[C@@H](CCCCN)C(=O)NCC(=O)N[C@@H](C)C(=O)N[C@@H](C)C(=O)N[C@@H](CCCCN)C(=O)O)[C@@H](C)CC [LeBo1, GIFSLIKGAAK] (H-GIFSLIKGAAK-OH; N-terminus and C-terminus assumed)	–	–	–	>128/>128/>128 ug/mL	>128/>128/>128 ug/mL	>128/>128/>128 ug/mL
CSCC[C@H](NC(=O)[C@@H](N)C(C)C)C(=O)N[C@@H](CC(C)C)C(=O)N1CCC[C@H]1C(=O)N[C@@H](CCCCN)C(=O)N[C@@H](Cc1ccccc1)C(=O)N[C@@H](CCCCN)C(=O)N[C@@H](CCCNC(=N)N)C(=O)O [MiDe1, VMLPKFKR] (H-VMLPKFKR-OH; N-terminus and C-terminus assumed)	>128/>128/>128 ug/mL	>128/>128/>128 ug/mL	>128/>128/>128 ug/mL	–	–	–
CC[C@H](C)[C@H](NC(=O)[C@H](CC(=O)O)NC(=O)[C@H](CO)NC(=O)[C@H](CC(C)C)NC(=O)[C@@H]1CCCN1C(=O)[C@@H](N)[C@@H](C)O)C(=O)N[C@@H](Cc1ccccc1)C(=O)N[C@@H](CCCNC(=N)N)C(=O)NCC(=O)N[C@@H](CCC(N)=O)C(=O)N[C@@H](CC(C)C)C(=O)N[C@@H](CCCNC(=N)N)C(=O)N[C@@H](CO)C(=O)N[C@@H](CCCNC(=N)N)C(=O)N[C@H](C(=O)N[C@@H](CO)C(=O)N[C@@H](CCCNC(=N)N)C(=O)O)C(C)C [NaVi1, TPLSDIFRGQLRSRVSR] (H-TPLSDIFRGQLRSRVSR-OH; N-terminus and C-terminus assumed)	>128/>128/>128 ug/mL	>128/>128/>128 ug/mL	>128/>128/>128 ug/mL	–	–	–
CC[C@H](C)[C@H](NC(=O)CNC(=O)[C@H](CO)NC(=O)[C@@H](NC(=O)[C@H](CC(C)C)NC(=O)CN)[C@@H](C)CC)C(=O)N[C@@H](CC(C)C)C(=O)NCC(=O)N[C@@H](C)C(=O)NCC(=O)N[C@@H](CCCCN)C(=O)N[C@@H](CCCCN)C(=O)O [OdMa8, GLISGILGAGKK] (H-GLISGILGAGKK-OH; N-terminus and C-terminus assumed)	–	–	–	>128/>128/>128 ug/mL	>128/>128/>128 ug/mL	>128/>128/>128 ug/mL

Further lines, with some results ahead:

MIC (ug/mL) E. coli (E. coli ATCC 25922; ATCC 25922)	MIC (ug/mL) S. Enteritidis [1, 2]	MIC (ug/mL) S. aureus (S. aureus ATCC 29213; ATCC 29213)	Compound	MIC (ug/mL) E. coli (E. coli ATCC 25922; [3])	MIC (ug/mL) S. Enteritidis [1, 4]	MIC (ug/mL) S. aureus (S. aureus ATCC 29213; [5])
>128/>128/>128 ug/mL	>128/>128/>128 ug/mL	>128/>128/>128 ug/mL	CC(C)C[C@H](NC(=O)CNC(=O)[C@H](CO)NC(=O)[C@H](CO)NC(=O)[C@H](CO)NC(=O)[C@H](CO)NC(=O)[C@H](CC(C)C)NC(=O)[C@@H]1CCCN1C(=O)[C@H](CO)NC(=O)[C@H](CC(C)C)NC(=O)[C@H](CO)NC(=O)[C@@H](N)CO)C(=O)NCC(=O)N[C@@H](CCCCN)C(=O)N[C@@H](CCCCN)C(=O)N[C@@H](CCCCN)C(=O)N[C@@H](CCCCN)C(=O)N[C@@H](CCCNC(=N)N)C(=O)N[C@@H](CCCCN)C(=O)N[C@@H](CO)C(=O)N[C@@H](CCCCN)C(=O)N[C@@H](CCCNC(=N)N)C(=O)N[C@@H](C)C(=O)N[C@@H](CO)C(=O)N[C@@H](CCCNC(=N)N)C(=O)O [NaVi2] (H-SSLSPLSSSSGLGKKKKRKSKRASR-OH; N-terminus and C-terminus assumed)	–	–	–
>128/>128/>128 ug/mL	>128/>128/>128 ug/mL	>128/>128/>128 ug/mL	CC[C@H](C)[C@H](NC(=O)[C@H](CS)NC(=O)[C@H](CCCNC(=N)N)NC(=O)[C@H](CS)NC(=O)[C@H](CO)NC(=O)[C@H](CCCNC(=N)N)NC(=O)[C@H](CO)NC(=O)[C@H](CO)NC(=O)[C@H](CO)NC(=O)CN)C(=O)N[C@@H](CCCNC(=N)N)C(=O)N[C@@H](CC(C)C)C(=O)N[C@@H](CO)C(=O)N[C@@H](CCCNC(=N)N)C(=O)N[C@@H](CC(C)C)C(=O)N[C@@H](CO)C(=O)N[C@@H](CO)C(=O)N[C@@H](CCCCN)C(=O)N[C@@H](CCCNC(=N)N)C(=O)N[C@H](C(=O)O)[C@@H](C)O [NaVi4] (H-GSSSRSCRCIRLSRLSSKRT-OH; N-terminus and C-terminus assumed)	–	–	–
>128/>128/>128 ug/mL	>128/>128/>128 ug/mL	>128/>128/>128 ug/mL	CC[C@H](C)[C@H](NC(=O)[C@H](Cc1c[nH]cn1)NC(=O)[C@H](Cc1c[nH]cn1)NC(=O)[C@H](Cc1ccc(O)cc1)NC(=O)[C@@H](N)CCCCN)C(=O)N[C@@H](CCCCN)C(=O)N[C@@H](CC(C)C)C(=O)N[C@@H](CCCNC(=N)N)C(=O)N[C@@H](Cc1c[nH]cn1)C(=O)NCC(=O)N[C@@H](CCCNC(=N)N)C(=O)N[C@@H](Cc1c[nH]cn1)C(=O)N[C@@H](CCCNC(=N)N)C(=O)N[C@@H](CCCNC(=N)N)C(=O)N[C@H](C(=O)N[C@H](C(=O)N[C@@H](Cc1c[nH]cn1)C(=O)O)[C@@H](C)CC)[C@@H](C)O [PaVa2, KYHHIKLRHGRHRRTIH] (H-KYHHIKLRHGRHRRTIH-OH; N-terminus and C-terminus assumed)	–	–	–
